Reference: patent publication US20250213183A1, “SYSTEM AND METHOD OF MONITORING NOCICEPTION AND ANALGESIA DURING ADMINISTRATION OF GENERAL ANESTHESIA” (The General Hospital Corporation, priority 2022, published 2025)

Conditions: single subject, forehead sensor, after propofol; FIG. 6B

CC(C)c1cccc(C(C)C)c1O [propofol]
EDA skin conductance response (SCR) after induction of general anesthesia: < 5 micro-Siemens
